Test results: patent US20100209536A1, “Methods and Kits for Use in the Treatment and Prevention of Diseases or Conditions of the Immune System or Infectious Diseases” (The Brigham and Women's Hospital, Inc., priority 2006, published 2010)

Legend:
[1] = tested on: recurrent wheeze in children at age 3 years; assay: Project Viva vitamin D study: maternal intake during pregnancy and risk of recurrent wheeze in children at age 3 years; format: in vivo, human
Description: (§1) Project Viva is a prospective cohort study examining prenatal factors in relation to outcomes of pregnancy and child health. Participants were recruited at eight obstetric offices of Harvard Vanguard Medical Associates, a large multispecialty urban/suburban group practice in eastern Massachusetts. At the 1st study visit, directly after the person's initial clinical prenatal visit, we obtained informed consent, administered a brief interview, and provided a take-home self-administered questionnaire. At the 2nd study visit, at 26 to 28 weeks gestation, we again administered a brief interview and provided a questionnaire. Project Viva participants gave birth at Brigham and Women's Hospital or Beth Israel Deaconess Medical Center in Boston. Within 3 days after delivery, we interviewed the mother. We reassessed mothers and children at 6 months, 1 year, and annually thereafter. At the time of this analysis, age 3 visits were almost complete.
Exclusion criteria included multiple gestation (e.g., twins), inability to answer questions in English, plans to move out of the area before delivery, and gestational age greater than 22 completed weeks at initial prenatal clinical appointment. Additional details of recruitment and follow-up have been presented elsewhere (Yunginger et al., Am. Rev. Respir. Dis. 146:888-894, 1992). Among 2,128 delivered infants in Project Viva, we excluded 228 because of missing first and second trimester diet assessment data and an additional 37 with a gestation of less than 34 completed weeks. […] Of the remaining 1,495 infants, 76 were lost to follow-up and 225 have not yet exited the 3-year time-window, leaving an analysis sample of 1,194 participants. Human subjects committees of Harvard Pilgrim Health Care, Brigham and. Women's Hospital, and Beth Israel Deaconess Medical Center approved the study protocols.
(§2) We obtained data directly from participants and from medical records, as detailed previously (Yunginger et al., Am. Rev. Respir. Dis. 146:888-894, 1992). Briefly, maternal diet assessment at both the 1st and 2nd visits was based on a validated 166-item semi-quantitative food frequency questionnaire (FFQ) (Fawzi et al., Ann. Epidemiol. 14:754-762, 2004). We slightly modified the FFQ for use in pregnancy from the FFQ used in the Nurses' Health Study and other cohort studies (Willett, New York: Oxford University Press; 1998). Modifications for use in pregnancy included changing the time referent, beverage section, and vitamin and supplement assessment. The FFQ used at the 1st visit reflected intakes in the 1st trimester and the time referent was “during this pregnancy.” In addition, we collected information on beverage intake during 2 specified time periods: before and after the participant learned that they were pregnant. To assess vitamin and supplement intake during the 1st trimester, we administered a separate interview that assessed dose, duration, and brand/type of multivitamin, prescribed prenatal vitamin, and supplements. The FFQ used at the 2nd visit (26 to 28 weeks of gestation) reflected intakes during the 2nd trimester; the time referent was “during the past 3 months.” The 2nd trimester instrument was the same as the 1st trimester, except that we assessed use of vitamins/supplements as part of the self-completed FFQ and we collected beverage information during the one time period.
To calculate intake of nutrients, we used the Harvard nutrient composition database (Hu, N. Engl. J. Med. 337:1491-1499, 1997). We calculated vitamin D intake for each FFQ, and the mean of these two values was the assigned exposure for each woman during pregnancy (Rifas-Shiman, Paediatr. Perinat. Epidemiol. 20:35-42, 2006). We used a similar approach for retinol and calcium intakes. For analyses based on foods rather than nutrients, we focused on milk (servings/day), the major contributor to vitamin D intake in the diet. […]

[2] = tested on: respiratory infection in children at age 3 years; assay: Project Viva vitamin D study: risk of respiratory infection in children at age 3 years; format: in vivo, human
Description: as §1, §2
(§3) To calculate intake of nutrients, we used the Harvard nutrient composition database (Hu, N. Engl. J. Med. 337:1491-1499, 1997). We calculated vitamin D intake for each FFQ, and the mean of these two values was the assigned exposure for each woman during pregnancy (Rifas-Shiman, Paediatr. Perinat. Epidemiol. 20:35-42, 2006). We used a similar approach for retinol and calcium intakes. For analyses based on foods rather than nutrients, we focused on milk (servings/day), the major contributor to vitamin D intake in the diet. We also examined foods with possible effects on asthma risk (McKeever et al., Am. J. Respir. Crit. Care Med. 170:725-729, 2004; Devereux et al., J. Allergy Clin. Immunol. 115:1109-1117, 2005): fruits and vegetables (servings/day) and fish (servings/week).
(§4) Finally, we examined two related outcomes: respiratory infection and eczema. We defined “respiratory infection” as a positive response to at least one of three questions on any of the annual questionnaires: “since your child was born (was 12 months old, was 2 years old), have you been told by a health professional that he/she has: (a) bronchiolitis; (b) pneumonia; (c) bronchitis, croup, or any other respiratory infection?” We defined “eczema” as a positive response to one question on any of the annual questionnaires: “have you ever been told by a health care professional that your child has eczema?”
(§5) To assess the associations between vitamin D intake and clinical outcomes, we used multiple logistic regression models. […]

[3] = tested on: eczema in children at age 3 years; assay: Project Viva vitamin D study: risk of eczema in children at age 3 years; format: in vivo, human
Description: as §1, §2, §3, §4, §5

[4] = tested on: any wheeze in children; assay: Project Viva vitamin D study: risk of any wheeze during the first three years of life; format: in vivo, human; conditions: n=416 cases; adjusted for the 12 factors in model A
Description: as §1, with “We reassessed mothers and children at 6 months, 1 year, and annually thereafter. At the time of this analysis, age 3 visits were almost complete.” left out
We obtained data directly from participants and from medical records, as detailed previously (Yunginger et al., Am. Rev. Respir. Dis. 146:888-894, 1992). Briefly, maternal diet assessment at both the 1st and 2nd visits was based on a validated 166-item semi-quantitative food frequency questionnaire (FFQ) (Fawzi et al., Ann. Epidemiol. 14:754-762, 2004). […] To assess vitamin and supplement intake during the 1st trimester, we administered a separate interview that assessed dose, duration, and brand/type of multivitamin, prescribed prenatal vitamin, and supplements. […]

[5] = tested on: cellular response to dexamethasone; conditions: steroid-resistant asthmatics; cited from earlier work
[6] = quartile 2 (median 513 IU) vs quartile 1
[7] = quartile 3 (median 603 IU) vs quartile 1
[8] = quartile 4 (median 724 IU) vs quartile 1

Substance: vitamin D
- Multivariate OR per 100 IU/day increase, recurrent wheeze ([1]; LMP in other seasons): 0.85
- Multivariate OR per 100 IU/day increase, recurrent wheeze ([1]; LMP in winter): 0.62
- Odds ratio, recurrent wheeze, model 2 with further control for child vitamin D intake from foods at 2 years ([1]; maternal intake quartiles, Table 2 model 2 plus child vitamin D intake from foods at 2 years): 0.34
- Odds ratio, recurrent wheeze, model 2 with further control for child use of a vitamin supplement at age 6 months ([1]; maternal intake quartiles, Table 2 model 2 plus child vitamin supplement at 6 months): 0.39
- Odds ratio, recurrent wheeze with 4+ wheezing episodes, per 100 IU increase ([1]; n=86 cases, adjusted for the 12 factors in model A): 0.79
- Odds ratio, recurrent wheeze and a doctor-diagnosis of asthma, per 100 IU increase ([1]; n=132 cases, adjusted for the 12 factors in model A): 0.82
- Odds ratio, recurrent wheeze, further adjustment for race/ethnicity and college education ([1]; per 100 IU/day maternal intake): 0.81
- Odds ratio, recurrent wheeze, per 100 IU/day, Food Only, Unadjusted ([1]; per 100 IU/day maternal intake, Food Only): 0.81
- Odds ratio, recurrent wheeze, per 100 IU/day, Supplement Only, Unadjusted ([1]; per 100 IU/day maternal intake, Supplement Only): 0.82
- Odds ratio, recurrent wheeze, per 100 IU/day, Total intake, Unadjusted ([1]; per 100 IU/day maternal intake, Total): 0.81
- Odds ratio, recurrent wheeze, per 100 IU/day, Food Only, Multivariate model A ([1]; per 100 IU/day, Food Only, adjusted for 12 factors): 0.79
- Odds ratio, recurrent wheeze, per 100 IU/day, Food Only, Multivariate model B ([1]; per 100 IU/day, Food Only, model A plus vitamin D from supplements): 0.80
- Odds ratio, recurrent wheeze, per 100 IU/day, Supplement Only, Multivariate model A ([1]; per 100 IU/day, Supplement Only, adjusted for 12 factors): 0.82
- Odds ratio, recurrent wheeze, per 100 IU/day, Supplement Only, Multivariate model B ([1]; per 100 IU/day, Supplement Only, model A plus vitamin D from foods): 0.82
- Odds ratio, recurrent wheeze, per 100 IU/day, Total, Multivariate model A ([1]; per 100 IU/day, Total, adjusted for 12 factors): 0.80
- Odds ratio, recurrent wheeze, per 100 IU/day, Total, Multivariate model C ([1]; per 100 IU/day, Total, model A plus maternal intake of calcium): 0.79
- Odds ratio, recurrent wheeze, per 100 IU/day, Total, Multivariate model D ([1]; per 100 IU/day, Total, model A plus maternal intake of retinol): 0.81
- Odds ratio, recurrent wheeze, Multivariate model 1 [1, 6]: 0.49
- Odds ratio, recurrent wheeze, Multivariate model 2 [1, 6]: 0.47
- Odds ratio, recurrent wheeze, Unadjusted ([1]; quartile 2 of maternal intake (median 513 IU, range 446-562) vs quartile 1, n = 1,194 pairs): 0.55
- Odds ratio, recurrent wheeze, Multivariate model 1 [1, 7]: 0.56
- Odds ratio, recurrent wheeze, Multivariate model 2 [1, 7]: 0.54
- Odds ratio, recurrent wheeze, Unadjusted ([1]; quartile 3 (median 603 IU, range 563-658) vs quartile 1): 0.55
- Odds ratio, recurrent wheeze, Multivariate model 1 [1, 8]: 0.41
- Odds ratio, recurrent wheeze, Multivariate model 2 [1, 8]: 0.38
- Odds ratio, recurrent wheeze, Unadjusted ([1]; quartile 4 (median 724 IU, range 659-1,145) vs quartile 1 (median 356 IU)): 0.39
- Effect of maternal intake on risk of respiratory infections ([2]; children at age 3 years): did not affect risk
- Odds ratio, respiratory infection, Multivariate model 1 [2, 6]: 0.73
- Odds ratio, respiratory infection, Multivariate model 2 [2, 6]: 0.74
- Odds ratio, respiratory infection, Unadjusted [2, 6]: 0.68
- Odds ratio, respiratory infection, Multivariate model 1 [2, 7]: 1.01
- Odds ratio, respiratory infection, Multivariate model 2 [2, 7]: 1.01
- Odds ratio, respiratory infection, Unadjusted [2, 7]: 0.92
- Odds ratio, respiratory infection, Multivariate model 1 [2, 8]: 0.74
- Odds ratio, respiratory infection, Multivariate model 2 [2, 8]: 0.75
- Odds ratio, respiratory infection, Unadjusted [2, 8]: 0.68
- Effect of maternal intake on risk of early childhood eczema ([3]; children at age 3 years): did not affect risk
- Odds ratio, eczema, Multivariate model 1 [3, 6]: 0.88
- Odds ratio, eczema, Multivariate model 2 [3, 6]: 0.86
- Odds ratio, eczema, Unadjusted [3, 6]: 1.00
- Odds ratio, eczema, Multivariate model 1 [3, 7]: 0.94
- Odds ratio, eczema, Multivariate model 2 [3, 7]: 0.93
- Odds ratio, eczema, Unadjusted [3, 7]: 1.03
- Odds ratio, eczema, Multivariate model 1 [3, 8]: 0.95
- Odds ratio, eczema, Multivariate model 2 [3, 8]: 0.92
- Odds ratio, eczema, Unadjusted [3, 8]: 1.10
- Odds ratio, any wheeze, per 100 IU increase of maternal intake [4]: 0.89
- Effect of supplementation on cellular response to dexamethasone [5]: improve the cellular response to dexamethasone
